The record followed here is ChEMBL document CHEMBL1152884, “The identification of orally bioavailable thrombopoietin agonists” (Bioorg Med Chem Lett, 2009).

The nature of data set [1]: Lipophilicity, log D of the compound. Format: physicochemical. As to conditions: octanol/water.
The nature of data set [2]: Aqueous solubility of the compound. It is filed as physicochemical.
Data set [3] deals with T1, Thrombopoietin receptor (Homo sapiens, UniProt P40238).
T1 sequence (P40238 whole entry): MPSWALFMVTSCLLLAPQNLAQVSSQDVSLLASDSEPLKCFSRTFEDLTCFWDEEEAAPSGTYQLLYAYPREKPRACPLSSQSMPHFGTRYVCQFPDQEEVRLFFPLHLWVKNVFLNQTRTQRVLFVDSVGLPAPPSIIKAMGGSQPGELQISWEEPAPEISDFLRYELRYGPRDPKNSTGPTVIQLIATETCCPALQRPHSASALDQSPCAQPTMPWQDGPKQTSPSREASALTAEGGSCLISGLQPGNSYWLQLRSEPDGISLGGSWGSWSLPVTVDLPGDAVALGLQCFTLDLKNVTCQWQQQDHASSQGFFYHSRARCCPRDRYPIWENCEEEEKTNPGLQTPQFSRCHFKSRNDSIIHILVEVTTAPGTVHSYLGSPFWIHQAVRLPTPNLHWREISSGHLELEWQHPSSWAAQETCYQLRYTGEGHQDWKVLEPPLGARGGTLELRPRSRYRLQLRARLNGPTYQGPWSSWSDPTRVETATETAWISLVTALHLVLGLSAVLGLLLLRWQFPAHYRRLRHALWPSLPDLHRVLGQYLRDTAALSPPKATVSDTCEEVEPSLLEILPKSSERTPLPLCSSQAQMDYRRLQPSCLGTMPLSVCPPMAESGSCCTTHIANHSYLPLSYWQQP
The data set is described as follows: Agonist activity at human thrombopoietin receptor transfected in mouse BAF3 cells assessed as stimulation of beta lactamase activity incubated in dark up to 1 hr. It is filed as functional, cell-based.

The test system of data set [4] is Rattus norvegicus. The data set is described as follows: Volume of distribution at steady state in rat at 5 mg/kg, po. It is filed as ADME, organism-based. Also on record: dose 5 mg/kg, route oral. As to conditions: in vivo.
Data set [5] can be described thus: Half life in rat at 5 mg/kg, po. Conditions: in vivo. Also noted: dose 5 mg/kg, route oral. It is filed as ADME, organism-based.
A short description of data set [6]: Bioavailability in rat at 5 mg/kg, po. Conditions: in vivo. It is filed as ADME, organism-based.
Data set [7] is described as follows: Plasma clearance in rat at 5 mg/kg, po. It is filed as ADME, organism-based. Also noted: dose 5 mg/kg, route oral.
A short description of data set [8]: Plasma clearance in dog at 5 mg/kg, po. Format: ADME, organism-based, Canis lupus familiaris. Also on record: dose 5 mg/kg, route oral.
Data set [9] relates to Canis familiaris. The data set is described as follows: Volume of distribution at steady state in dog at 5 mg/kg, po. As to conditions: in vivo. Also on record: dose 5 mg/kg, route oral. Format: ADME, organism-based, Canis lupus familiaris.
Data set [10] can be described thus: Half life in dog at 5 mg/kg, po. Format: ADME, organism-based, Canis lupus familiaris. Also on record: dose 5 mg/kg, route oral. Conditions: in vivo.
Data set [11] is described as follows: Bioavailability in dog at 5 mg/kg, po. It is filed as ADME, organism-based, Canis lupus familiaris. As to conditions: in vivo.
A short description of data set [12]: Permeability across human Caco-2 cell membrane. Format: ADME, cell-based. Conditions: read-out: permeability.
The nature of data set [13]: Oral bioavailability in rat. Format: ADME, organism-based. Conditions: in vivo.
Data set [14] can be described thus: Clearance in iv dosed rat. Format: ADME, organism-based. As to conditions: in vivo.
A short description of data set [15]: Protein binding in rat plasma. Conditions: read-out: PPB. Format: ADME, cell-free.
Data set [16] is described as follows: Protein binding in dog plasma. As to conditions: read-out: PPB. Format: ADME, cell-free, Canis lupus familiaris.
Data set [17] is described as follows: Protein binding in mouse plasma. It is filed as ADME, cell-free. Conditions: read-out: PPB.
The nature of data set [18]: Protein binding in human plasma. Format: ADME, cell-free. As to conditions: read-out: PPB.
Where [19] appears, read: aqueous medium, read-out: solubility.

Converted amounts (≈) assume the structure as drawn.

Regarding `O=C(Nc1nc(-c2cccc(OC(F)(F)F)c2F)cs1)c1ccc(Nc2cc(N3CC(O)C3)ncn2)cc1`, the logD (as a rule, lipophilicity at a set pH, counting ionised and neutral species) in [1] was determined as 4.61. In addition, in data set [2] (setting [19]), the solubility (in general, the concentration that dissolves in the medium under given conditions) was less than 0.001 mg/mL.
Turning to `O=C(Nc1nc(-c2cccc(C(F)(F)F)c2F)cs1)c1cnc(N2CCCCC2)c(Cl)c1`, in data set [1], the logD stood at 7.1. In addition, the solubility in data set [2] (setting [19]) is less than 0.01 mg/mL. Besides, in [3], the EC50 – broadly, the concentration that produces a half-maximal response – is more than 10 µM.
In the case of `O=C(Nc1nc(-c2cccc(C(F)(F)F)c2F)cs1)c1cc(Cl)c(N2CCC(C(=O)O)CC2)c(Cl)c1`, the solubility in [2] (setting [19]) was less than 0.01 mg/mL. Moreover, the EC50 in [3] worked out at 0.01 µM.
Consider `NCCO.O=C(Nc1nc(-c2cccc(C(F)(F)F)c2F)cs1)c1cnc(N2CCC(C(=O)O)CC2)c(Cl)c1`, for which, in [2] (setting [19]), the solubility was 15.6 mg/mL.
With `O=C(Nc1nc(-c2cccc(C(F)(F)F)c2F)cs1)c1cnc(N2CCC(C(=O)O)CC2)c(Br)c1`, the solubility in data set [2] (setting [19]) is less than 0.01 mg/mL. In data set [3], the EC50 was found to be 0.05 µM.
In the same order, the values of `O=C(Nc1nc(-c2cccc(C(F)(F)F)c2F)cs1)c1ccc(N2CCC(C(=O)O)CC2)c(Cl)c1` are less than 0.01 mg/mL and 0.056 µM.
On the same counts, the results for `COc1cc(C(=O)Nc2nc(-c3cccc(C(F)(F)F)c3F)cs2)cnc1N1CCC(C(=O)O)CC1` are less than 0.01 mg/mL and more than 1 µM.
In turn, `C[C@H]1CN(c2ncc(C(=O)Nc3nc(-c4cccc(C(F)(F)F)c4F)cs3)cc2Cl)CC1C(=O)O` (some centres undefined) registered a logD in data set [1] of 2.79. Also, in data set [2] (setting [19]), the solubility is less than 0.01 mg/mL. Moreover, the EC50 in [3] was 0.043 µM.
`CC1=NN(c2ccc(C)c(C)c2)C(=O)/C1=N\Nc1cccc(-c2cccc(C(=O)[O-])c2)c1O.[Na+]`: in [4], the Vdss came out at 0.831 L/kg. Moreover, the half-life (in general, the time needed for the level to fall by half in the phase considered) in data set [5] was 1.34 h. Besides, the bioavailability (as a rule, the share of a dose that reaches the circulation, judged against a reference dose that is usually intravenous) in data set [6] was 66.8%. Moreover, in data set [7], the CL/F (usually the apparent clearance, not corrected for the fraction that reaches the circulation) amounted to 0.412 L/h/kg.
On to `CC1=NN(c2ccc(C)c(C)c2)C(=O)/C1=N\Nc1cccc(-c2cccc(C(=O)O)c2)c1O.NCCO`, for which the Vdss was found to be 0.579 L/kg in data set [4] and 0.228 L/kg in [9]. Besides, the half-life was 1.29 h in data set [5] and 2.31 h in [10]. Besides, the bioavailability in [6] stood at 53.4%; in data set [11], 50%. Further, the CL/F came to 0.0564 L/h/kg in [8] and 0.38 L/h/kg in [7]. The same compound gave a solubility in data set [2] (buffer) of less than 0.001 mg/mL.
With `O=C(Nc1nc(-c2cccc(C(F)(F)F)c2F)cs1)c1cnc(N2CCC(C(=O)O)CC2)c(C(F)(F)F)c1`, the solubility in data set [2] (setting [19]) was less than 0.01 mg/mL. The EC50 in data set [3] is 0.134 µM.
On the same counts, the results for `N#Cc1cc(C(=O)Nc2nc(-c3cccc(C(F)(F)F)c3F)cs2)cnc1N1CCC(C(=O)O)CC1` are less than 0.01 mg/mL and 0.138 µM.
On the same counts, the results for `Cc1cc(C(=O)Nc2nc(-c3cccc(C(F)(F)F)c3F)cs2)cnc1N1CCC(C(=O)O)CC1` are less than 0.01 mg/mL and 0.253 µM.
In data set [1], `NC(=O)C1CCN(c2ncc(C(=O)Nc3nc(-c4cccc(C(F)(F)F)c4F)cs3)cc2Cl)CC1` came in with a log distribution coefficient (logD) of 4.92. Also, the solubility in data set [2] (setting [19]) was less than 0.01 mg/mL. The EC50 in data set [3] was determined as 0.028 µM.
With `O=C(Nc1nc(-c2cccc(C(F)(F)F)c2F)cs1)c1cnc(N2CCC(C(=O)O)CC2)c(F)c1`, in [2] (setting [19]), the solubility was less than 0.01 mg/mL. Moreover, in data set [3], the EC50 is more than 1 µM.
On to `O=C(Nc1nc(-c2cccc(C(F)(F)F)c2F)cs1)c1ccc(N2CCC(C(=O)O)C2)nc1` (centres undefined), for which the Papp in data set [12] came to 45 nm/s. This compound came in with a logD in [1] of 1.21. In addition, in data set [2] (setting [19]), the solubility worked out at 0.167 mg/mL (≈ 348 µM). In data set [13], this compound registered a bioavailability of less than 3%. For the same compound, the EC50 in [3] was determined as 3.3 µM. The clearance (commonly the volume of plasma or blood freed of the substance per unit of time) in data set [14] worked out at 0.15 L/h/kg.
The compound `O=C(Nc1nc(-c2cccc(C(F)(F)F)c2F)cs1)c1cnc(N2CCCC(C(=O)O)C2)c(Cl)c1` (centres undefined) came in with a logD in [1] of 2.94. For the same compound, the solubility in data set [2] (setting [19]) is less than 0.01 mg/mL. Moreover, the EC50 in data set [3] amounted to 0.294 µM.
In the same order, the values of `O=C(Nc1nc(-c2cccc(C(F)(F)F)c2F)cs1)c1cnc(N2CCNC(C(=O)O)C2)c(Cl)c1` (centres undefined) are 1.88, less than 0.01 mg/mL and 0.129 µM.
In data set [1], `NS(=O)(=O)C1CCN(c2ncc(C(=O)Nc3nc(-c4cccc(C(F)(F)F)c4F)cs3)cc2Cl)CC1` showed a logD of 4.86. Further, the solubility in [2] (setting [19]) is less than 0.01 mg/mL. For the same compound, the EC50 in data set [3] stood at 0.034 µM.
On the same counts, the results for `O=C(Nc1nc(-c2cccc(C(F)(F)F)c2F)cs1)c1cnc(N2CCC(c3nn[nH]n3)CC2)c(Cl)c1` are 3.24, less than 0.01 mg/mL and 0.485 µM.
For the compound `NCCO.O=C(Nc1nc(-c2cccc(C(F)(F)F)c2F)cs1)c1ccc(N2CCC(C(=O)O)C2)nc1` (centres undefined), the solubility in [2] (setting [19]) is more than 2 mg/mL.
Turning to `O=C(Nc1nc(-c2cccc(C(F)(F)F)c2F)cs1)c1ccc(N2CCC(C(=O)O)CC2)nc1`, the logD in [1] came to 1.83. For the same compound, in data set [2] (setting [19]), the solubility was less than 0.01 mg/mL. Besides, in [3], the EC50 came to 0.43 µM.
Consider `O=C(Nc1nc(-c2cccc(C(F)(F)F)c2F)cs1)c1cnc(N2CCC(C(=O)O)CC2)c(Cl)c1`, for which the fraction unbound in data set [15], in [16], in data set [17] and in [18] was less than 0.005 each time. In addition, the logD in [1] worked out at 2.94. In data set [2] (setting [19]), the solubility was less than 0.01 mg/mL. For the same compound, the half-maximal effective concentration (EC50) in data set [3] was 0.033 µM.
In data set [1], `C[C@@H](Nc1ncc(C(=O)Nc2nc(-c3cccc(C(F)(F)F)c3F)cs2)cc1Cl)C(=O)O` had a logD of 1.57. The solubility in [2] (setting [19]) was less than 0.01 mg/mL. Moreover, the EC50 in data set [3] came out at 0.057 µM.
As for `CC1=NN(c2ccc(C)c(C)c2)C(=O)/C1=N\Nc1cccc(-c2cccc(C(=O)O)c2)c1O` [ELTROMBOPAG], the solubility in data set [2] (buffer) amounted to 14 mg/mL (≈ 31600 µM).
